# Earlier results as cited in US20100227921A1, “AMINO ACID AND PEPTIDE CARBAMATE PRODRUGS OF […] USES THEREOF” (SHIRE LLC, priority 2009, published 2010).
# Assays:
# [1] = 75 mg immediate release dosage; Afilalo et al. 2008; cited from earlier work
# [2] = cited from earlier work
smiles,measurement,setting,value
"CC[C@@H](c1cccc(O)c1)[C@@H](C)CN(C)C (racemic) [Tapentadol, (−)-(1R,2R)-3-(3-dimethyl-amino-1-ethyl-2-methyl-propyl)-phenol]",patients with nausea/vomiting,[1],30-35%
same,treated patients with constipation,[1],~11%
same,clearance (printed C1),[2]; Terlinden et al. (2007),1468 ± 122 mL/min
same,plasma half-life,[2]; humans,4.5 h
